Test results taken from publication PMC5282547, “The Proline/Arginine Dipeptide from Hexanucleotide Repeat Expanded C9ORF72 Inhibits the Proteasome” (eNeuro, 2017).
Where no end group is shown, it is not given here.

What was measured:
motor neurons [1] = experiment: Motor neuron survival in mixed spinal cord cultures (SMI32 counts), LD50 determination; format: cell-based, rat
Protocol: Mixed spinal cord neuron cultures were prepared as described previously ([Mojsilovic-Petrovic et al., 2006]). Briefly, an astrocyte feeder layer was prepared from the cortex of newborn Sprague Dawley rat pups [postnatal day 2 (P2)] and grown to ∼80% confluency. Subsequently, dissociated embryonic day 15 (E15) spinal cord neurons were added. One to two days later, AraC ([…]) (catalog #C6645; Sigma) was added for 24 h to arrest astrocyte proliferation. Cultures were maintained in glia-conditioned medium supplemented with the following trophic factors (1.0 ng/ml each): human neurotrophin-3, human neurotrophin-4, human brain-derived neurotrophic factor, and rat ciliary neurotrophic factor (Alomone Labs). Half of the culture medium was replaced on a biweekly basis.
Days in vitro (DIV)14 mixed spinal cord cultures were exposed to PR20 or GR20 by addition of synthetic peptide to the media one time. Cultures were fixed 5 d later with freshly prepared 4% paraformaldehyde for 20 min, washed extensively with 0.1 M PBS, pH 7.4, and immunostained with SMI32 to identify motor neurons. Immunopositive cells >25 µm in diameter are motor neurons based on their costaining for peripherin, ChAT, and islet 1/2 ([Mojsilovic-Petrovic et al., 2006]). Motor neurons were counted in three nonoverlapping, randomly selected fields on a coverslip using a 5[times objective, and the values from a single coverslip averaged. The results of 3-5 independently treated coverslips were the basis and means and variance used in statistical analysis. Each experiment was repeated with independently generated culture 4+ times ([Mojsilovic-Petrovic et al., 2006]).
Motor neuron survival 5 d later was determined. Once the approximate LD50 was determined, we repeated the analysis with more closely spaced concentrations for a more precise definition of the LD50. Determination of the LD50 of MG132 was accomplished in an identical manner.

phosphorylated AMPK = experiment: Immunoblot for mitochondrial dysfunction; format: cell-based, rat; conditions: 2 µM, 48 h, immunoblot normalized to actin
Protocol: (§1) All plates were incubated with PR20 for 48 h.

[2] = system: KDEL-tagged chaperones BiP and PDI; experiment: Immunoblot for ER stress; format: cell-based, rat; conditions: 2 µM, 48 h, immunoblot normalized to actin
Protocol: as §1

Dendra2 = experiment: Optical pulse labeling of Dendra2; format: cell-based, rat; conditions: 2 µM peptide; vehicle 29.6 h; not significantly different from vehicle
Protocol: Primary spinal neurons were dissected from E15 rat pups and cultured at a density of 2.5 × 10^5 cells/ml on a laminin/poly-lysine-coated 96-well plate in motor neuron media. Four days after plating, neurons were transfected with Lipofectamine 2000 (Invitrogen). DNA-Lipofectamine mixtures were incubated with neurons for 20 min followed by rinsing. Neurons were then placed in 100 µL of conditioned media that was collected immediately prior to transfection and half fresh motor neuron media containing 4 µM PR20, resulting in a final concentration of 2 µM PR20.
Optical pulse labeling experiments were performed using an automated microscopy platform previously described by [Arrasate et al. (2004)] and [Barmada et al. (2014)]. A Nikon Eclipse Ti inverted microscope equipped with a PerfectFocus system, 20× objective lens and an Andor iXon3 897 EMCCD camera were used to acquire images. Samples were illuminated with a Sutter Instruments Lamba XL lamp. The microscope and related components were encased in custom-built plexiglass enclosure set to maintain the temperature at 37°C and CO2 at 5%. Semrock GFP and TRITC filters were used for excitation and detection. A Semrock 405-nm long-pass filter was used for photoactivation. Image acquisition and stage movements were accomplished in an automated fashion using µManager and original code written in BeanShell. For all experiments, photoconversion occurred 24 h following transfection. GFP and TRITC images were acquired immediately following activation and subsequently every 2 h for 12 h. Images were acquired in a similar 12-h window starting 48 h after PR20 treatment. Using in-house image analysis scripts, neuronal cell bodies were identified based on their fluorescent intensity and morphology, and a ROI was drawn around the perimeter of each cell at each time. Single-cell TRITC intensity values were recorded and used to fit a first order exponential decay curve for individual neurons and calculate a Dendra2-light chain 3 (LC3) half-life for each cell. […]

human proteasomes = experiment: Direct interaction with human proteasomes (streptavidin pull-down, anti-HA immunoblot); format: binding; conditions: 2 µM HA-tagged peptide, HEK293T extracts with HTBH-tagged β4 subunits, 2 h at 4 °C
Protocol: Whole-cell extracts from a stable HEK293T cell line harboring HTBH-tagged β4 subunits were prepared as in Han et al. (2014) and incubated with HA-tagged PR20 or GR20 peptides (2 µM) 2 h at 4 °C. The resulting proteasome-dipeptide complexes were pull-downed with streptavidin agarose beads (Millipore) for 3 h at 4 °C. Unbound proteasomes in the supernatants were discarded, and the pellets were mixed with 2× SDS sample buffer. Different amounts of samples were resolved by SDS-PAGE/immunoblotting against HA and a proteasome core particle α3 subunit.

motor neurons [3] = experiment: Motor neuron survival with IU1 co-treatment; format: cell-based, rat; conditions: PR20 treatment without IU1, 5 d
Protocol: Days in vitro (DIV)14 mixed spinal cord cultures were exposed to PR20 or GR20 by addition of synthetic peptide to the media one time. Cultures were fixed 5 d later with freshly prepared 4% paraformaldehyde for 20 min, washed extensively with 0.1 M PBS, pH 7.4, and immunostained with SMI32 to identify motor neurons. […] Motor neurons were counted in three nonoverlapping, randomly selected fields on a coverslip using a 5[times objective, and the values from a single coverslip averaged.
For experiments involving IU1, DIV14 cultures were treated with PR20 or its vehicle, and every other day, IU1 (or vehicle) was added to the culture media to achieve a final concentration of 5 µM. At DIV19, cultures were fixed and motor neuron number determined as described above.

human astrocytes = conditions: DPR applied repeatedly; ref Kwon et al. (2014); cited from earlier work
Description: We draw a number of conclusions from these experiments.

[4] = system: mixed spinal cord cultures; experiment: Cellular accumulation and disposal of HA-tagged DPR (immunoblot of cell lysates, continuous exposure or 2-h pulse-chase)
Protocol: Confluent dishes of astrocyte neuron cocultures at 37°C had volumes equalized to 2 ml of cell culture media each. Approximately 300 μl of media from each dish was removed and pooled with other dishes, PR20 stock solution was added, and the mixture was then added back to the corresponding culture dish, so that each dish contained a final concentration of 2 μM. All plates were incubated with PR20 for 48 h.
Lysis buffer was prepared containing 1% (v/v) protease inhibitor cocktail, 1% (v/v) PMSF, and 1% (v/v) leucine in 1% RIPA buffer solution on ice. Culture dishes were washed once with ice-cold PBS to remove any remaining media. A total of 125 μl (35-mm dish), 150 μl (6-well plate), or 250 μL (60-mm dish) of lysis buffer was added to each plate, and cells were scraped into a cold 1.5-ml tube. Samples were sonicated for 30 s at 20% intensity, placed on a rotator at 4°C for 20 min, and then centrifuged for 15 min at 13,200 rpm. Supernatant was then removed from each tube for further analysis.
We investigated the fate of PR20 in mixed spinal cord cultures through immunoblotting and immunocytochemistry. […] To gain further insight into the kinetics of the observed decrease in PR20 levels in cell lysates over time, we pulsed cells with 2 µM PR20 for 2 h, washed, replaced with fresh media (lacking PR20), and made cell lysates at regular intervals thereafter. […] To more easily follow GR20 by immunoblotting, we applied 10 µM GR20 to cultures and performed the same kinetic analysis as described in Figure 1D.

[5] = 2 µM in media, continuous exposure

For “PRPRPRPRPRPRPRPRPRPRPRPRPRPRPRPRPRPRPRPRYPYDVPDYA [PR20]”, the “motor neuron death at the 48-h time point” value (motor neurons [1]; 2 µM PR20, 48 h) was “No significant motor neuron death”, the “LD50, death of motor neurons” value (motor neurons [1]; single application to DIV14 mixed spinal cord cultures on astrocyte feeder layer, motor neuron survival 5 d later) was 2.0 µM and the “mitochondrial dysfunction (phosphorylated AMPK) versus vehicle” value (phosphorylated AMPK) was “no statistically significant differences”. The “ER stress (BiP and PDI abundance) versus vehicle” value [2] was “no statistically significant differences”, the Dendra2 half-life (Dendra2) was 30.5 h and the “association with proteasomes in pull-down” value (human proteasomes) was “associates with proteasomes”. For the same sequence, the “loss of motor neurons” value (motor neurons [3]) was “approximately 50%”, the “LD50 that kills human astrocytes” value (human astrocytes) was 8.4 µM and the “time of maximum immunoblot signal in cell lysates” value [4, 5] was 1.0 to 2.0 h. The “time point at which immunoblot signal is undetectable” value [4, 5] was 48 h, the “time at which peptide is first detectable in cell lysates” value ([4]; 2 µM in media, continuous exposure, anti-HA immunoblot) was “approximately 0.5 h” and the “decrement in peptide abundance with versus without bafilomycin A1 in the chase media” value ([4]; 2-h pulse with 2 µM, chase with Baf A1 400 nM) was “the same”. For the same sequence, the “loss of peptide with MG132 versus vehicle in the chase media” value ([4]; 2-h pulse with 2 µM, chase with MG132 5 µM) was “indistinguishable”, the “lysate fractions with detectable Western blot signal at the 2-h time point” value ([4]; 2-h pulse-chase, 2 µM) was “soluble and insoluble fractions” and the “time point by which signal diminishes to a barely detectable level” value ([4]; 2-h pulse-chase, 2 µM) was 6 h. The “half-life of dipeptide in cells” value ([4]; immunoblot of mixed spinal cord culture lysates) was “on the orders of hours”.
